Legend:
[1] = Calcium binding (free Ca in solution before oxalate addition); format: physicochemical; conditions: inhibitor 100 mg/L; ~1.0 mM if no Ca binding occurs; control 1.02 mM
Protocol: Calcium binding was determined before oxalate addition. Crystals were obtained after the end of the kinetic experiments (1 hour), filtered, dried and tested by FTIR. The major polymorph was reported; other phases may be present but their peaks were not distinguishable in IR. Initial calcium and oxalate concentrations was the same, approximately 1 mM in pH buffered medium containing 10 mM HEPES and 150 mM NaCl. […] The data are Ca recordings obtained from solutions containing the inhibitor (100 mg/L) and calcium. The Ca ion concentration should be ˜1.0 mM if no Ca binding occurs. This could be related to the type of adsorption on the crystals as reported in a later section. Some of our proposed KSIs are showing significant Ca binding activity, and these are likely to be the best candidates as inhibitors.

[2] = Effect of inhibitors on crystal morphology (COM/COD/COT); conditions: 100 mg/L; 1 hr after start of reaction; control yields COM

## O=C(O)CN(CCN(CC(=O)O)CC(=O)O)CCN(CC(=O)O)CC(=O)O [DTPA, diethylenetriaminepentaacetic acid]
[1]
  Ca2+ concentration in the presence of inhibitors at 100 mg/L (PPM): 0.71 mM
[2]
  crystal phase obtained (COM, COD or COT): COT

Source: patent publication US20170095504A1, “Inhibitors of Kidney Stone Formation and Calcium Deposition” (priority 2015, published 2017)
